According to article PMC12446476 (Nature Communications, 2025):
Values after ≈ are worked out from the molar mass of the structure shown. Read-outs that look alike come from different tables or passages of the source.

Tested on: N. gonorrhoeae
Experiment: MIC determination, agar dilution (CLSI)
Type: cell-based, Neisseria gonorrhoeae
In short: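 For N. gonorrhoeae, WHO 2024 reference strains served as quality control, only whole doubling-dilution MICs were reported, and isolates were classified by EUCAST v14.0 breakpoints or ECOFF. Time-kill assays followed CLSI in Columbia broth with 1% IsoVitaleX, and viable counts came from plating serial dilutions on GC agar with IsoVitaleX.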

[1] = Neisseria gonorrhoeae, 100 contemporary clinical N. gonorrhoeae isolates

## Cc1c(CN(C)C(=O)/C=C/c2cnc3c(c2)N[C@H](C)[C@H](O)C(=O)N3)oc2ccccc12 [Debio 1453]
Neisseria gonorrhoeae, clinical N. gonorrhoeae isolate 44, Sweden 2023, read-out: Minimum inhibitory concentration
  MIC: 0.032 µg/mL (≈ 0.0761 µM)
Neisseria gonorrhoeae, clinical N. gonorrhoeae isolate 45, Sweden 2023, read-out: Minimum inhibitory concentration
  MIC: 0.032 µg/mL (≈ 0.0761 µM)
Neisseria gonorrhoeae, clinical N. gonorrhoeae isolate 46, Sweden 2023, read-out: Minimum inhibitory concentration
  MIC: 0.032 µg/mL (≈ 0.0761 µM)
Neisseria gonorrhoeae, clinical N. gonorrhoeae isolate 47, Sweden 2023, read-out: Minimum inhibitory concentration
  MIC: 0.064 µg/mL (≈ 0.152 µM)
Neisseria gonorrhoeae, clinical N. gonorrhoeae isolate 48, Sweden 2023, read-out: Minimum inhibitory concentration
  MIC: 0.016 µg/mL (≈ 0.0381 µM)
Neisseria gonorrhoeae, clinical N. gonorrhoeae isolate 49, Sweden 2023, read-out: Minimum inhibitory concentration
  MIC: 0.032 µg/mL (≈ 0.0761 µM)
Neisseria gonorrhoeae, clinical N. gonorrhoeae isolate 50, Sweden 2023, read-out: Minimum inhibitory concentration
  MIC: 0.064 µg/mL (≈ 0.152 µM)
Neisseria gonorrhoeae, clinical N. gonorrhoeae isolate 51, Sweden 2023, read-out: Minimum inhibitory concentration
  MIC: 0.016 µg/mL (≈ 0.0381 µM)
Neisseria gonorrhoeae, clinical N. gonorrhoeae isolate 52, Sweden 2023, read-out: Minimum inhibitory concentration
  MIC: 0.125 µg/mL (≈ 0.297 µM)
Neisseria gonorrhoeae, clinical N. gonorrhoeae isolate 53, Sweden 2023, read-out: Minimum inhibitory concentration
  MIC: 0.064 µg/mL (≈ 0.152 µM)
Neisseria gonorrhoeae, clinical N. gonorrhoeae isolate 54, Sweden 2023, read-out: Minimum inhibitory concentration
  MIC: 0.064 µg/mL (≈ 0.152 µM)
Neisseria gonorrhoeae, clinical N. gonorrhoeae isolate 55, Sweden 2023, read-out: Minimum inhibitory concentration
  MIC: 0.064 µg/mL (≈ 0.152 µM)
Neisseria gonorrhoeae, clinical N. gonorrhoeae isolate 56, Sweden 2023, read-out: Minimum inhibitory concentration
  MIC: 0.008 µg/mL (≈ 0.019 µM)
Neisseria gonorrhoeae, clinical N. gonorrhoeae isolate 57, Sweden 2023, read-out: Minimum inhibitory concentration
  MIC: 0.032 µg/mL (≈ 0.0761 µM)
Neisseria gonorrhoeae, clinical N. gonorrhoeae isolate 58, Sweden 2023, read-out: Minimum inhibitory concentration
  MIC: 0.064 µg/mL (≈ 0.152 µM)
Neisseria gonorrhoeae, clinical N. gonorrhoeae isolate 59, Sweden 2023, read-out: Minimum inhibitory concentration
  MIC: 0.064 µg/mL (≈ 0.152 µM)
Neisseria gonorrhoeae, clinical N. gonorrhoeae isolate 60, Sweden 2023, read-out: Minimum inhibitory concentration
  MIC: 0.064 µg/mL (≈ 0.152 µM)
Neisseria gonorrhoeae, clinical N. gonorrhoeae isolate 61, Sweden 2023, read-out: Minimum inhibitory concentration
  MIC: 0.064 µg/mL (≈ 0.152 µM)
Neisseria gonorrhoeae, clinical N. gonorrhoeae isolate 62, Sweden 2023, read-out: Minimum inhibitory concentration
  MIC: 0.016 µg/mL (≈ 0.0381 µM)
Neisseria gonorrhoeae, clinical N. gonorrhoeae isolate 63, Sweden 2023, read-out: Minimum inhibitory concentration
  MIC: 0.032 µg/mL (≈ 0.0761 µM)
Neisseria gonorrhoeae, clinical N. gonorrhoeae isolate 64, Sweden 2023, read-out: Minimum inhibitory concentration
  MIC: 0.008 µg/mL (≈ 0.019 µM)
Neisseria gonorrhoeae, clinical N. gonorrhoeae isolate 65, Sweden 2023, read-out: Minimum inhibitory concentration
  MIC: 0.064 µg/mL (≈ 0.152 µM)
Neisseria gonorrhoeae, clinical N. gonorrhoeae isolate 66, Sweden 2023, read-out: Minimum inhibitory concentration
  MIC: 0.032 µg/mL (≈ 0.0761 µM)
Neisseria gonorrhoeae, clinical N. gonorrhoeae isolate 67, Sweden 2023, read-out: Minimum inhibitory concentration
  MIC: 0.032 µg/mL (≈ 0.0761 µM)
Neisseria gonorrhoeae, clinical N. gonorrhoeae isolate 68, Sweden 2023, read-out: Minimum inhibitory concentration
  MIC: 0.064 µg/mL (≈ 0.152 µM)
Neisseria gonorrhoeae, clinical N. gonorrhoeae isolate 69, Sweden 2023, read-out: Minimum inhibitory concentration
  MIC: 0.064 µg/mL (≈ 0.152 µM)
Neisseria gonorrhoeae, clinical N. gonorrhoeae isolate 70, Sweden 2023, read-out: Minimum inhibitory concentration
  MIC: 0.064 µg/mL (≈ 0.152 µM)
Neisseria gonorrhoeae, clinical N. gonorrhoeae isolate 71, Sweden 2023, read-out: Minimum inhibitory concentration
  MIC: 0.064 µg/mL (≈ 0.152 µM)
Neisseria gonorrhoeae, clinical N. gonorrhoeae isolate 72, Sweden 2023, read-out: Minimum inhibitory concentration
  MIC: 0.064 µg/mL (≈ 0.152 µM)
Neisseria gonorrhoeae, clinical N. gonorrhoeae isolate 73, Sweden 2023, read-out: Minimum inhibitory concentration
  MIC: 0.032 µg/mL (≈ 0.0761 µM)
Neisseria gonorrhoeae, clinical N. gonorrhoeae isolate 74, Sweden 2023, read-out: Minimum inhibitory concentration
  MIC: 0.064 µg/mL (≈ 0.152 µM)
Neisseria gonorrhoeae, clinical N. gonorrhoeae isolate 75, Sweden 2023, read-out: Minimum inhibitory concentration
  MIC: 0.008 µg/mL (≈ 0.019 µM)
Neisseria gonorrhoeae, clinical N. gonorrhoeae isolate 76, Sweden 2023, read-out: Minimum inhibitory concentration
  MIC: 0.064 µg/mL (≈ 0.152 µM)
Neisseria gonorrhoeae, clinical N. gonorrhoeae isolate 77, Sweden 2023, read-out: Minimum inhibitory concentration
  MIC: 0.064 µg/mL (≈ 0.152 µM)
Neisseria gonorrhoeae, clinical N. gonorrhoeae isolate 78, Sweden 2023, read-out: Minimum inhibitory concentration
  MIC: 0.032 µg/mL (≈ 0.0761 µM)
Neisseria gonorrhoeae, clinical N. gonorrhoeae isolate 79, Sweden 2023, read-out: Minimum inhibitory concentration
  MIC: 0.032 µg/mL (≈ 0.0761 µM)
Neisseria gonorrhoeae, clinical N. gonorrhoeae isolate 80, Sweden 2023, read-out: Minimum inhibitory concentration
  MIC: 0.032 µg/mL (≈ 0.0761 µM)
Neisseria gonorrhoeae, clinical N. gonorrhoeae isolate 81, Sweden 2023, read-out: Minimum inhibitory concentration
  MIC: 0.064 µg/mL (≈ 0.152 µM)
Neisseria gonorrhoeae, clinical N. gonorrhoeae isolate 82, Sweden 2023, read-out: Minimum inhibitory concentration
  MIC: 0.032 µg/mL (≈ 0.0761 µM)
Neisseria gonorrhoeae, clinical N. gonorrhoeae isolate 83, Sweden 2023, read-out: Minimum inhibitory concentration
  MIC: 0.064 µg/mL (≈ 0.152 µM)
Neisseria gonorrhoeae, clinical N. gonorrhoeae isolate 84, Sweden 2023, read-out: Minimum inhibitory concentration
  MIC: 0.064 µg/mL (≈ 0.152 µM)
Neisseria gonorrhoeae, clinical N. gonorrhoeae isolate 85, Sweden 2023, read-out: Minimum inhibitory concentration
  MIC: 0.008 µg/mL (≈ 0.019 µM)
Neisseria gonorrhoeae, clinical N. gonorrhoeae isolate 86, Sweden 2023, read-out: Minimum inhibitory concentration
  MIC: 0.032 µg/mL (≈ 0.0761 µM)
Neisseria gonorrhoeae, clinical N. gonorrhoeae isolate 87, Sweden 2023, read-out: Minimum inhibitory concentration
  MIC: 0.016 µg/mL (≈ 0.0381 µM)
Neisseria gonorrhoeae, clinical N. gonorrhoeae isolate 88, Sweden 2023, read-out: Minimum inhibitory concentration
  MIC: 0.064 µg/mL (≈ 0.152 µM)
Neisseria gonorrhoeae, clinical N. gonorrhoeae isolate 89, Sweden 2023, read-out: Minimum inhibitory concentration
  MIC: 0.032 µg/mL (≈ 0.0761 µM)
Neisseria gonorrhoeae, clinical N. gonorrhoeae isolate 90, Sweden 2023, read-out: Minimum inhibitory concentration
  MIC: 0.125 µg/mL (≈ 0.297 µM)
Neisseria gonorrhoeae, clinical N. gonorrhoeae isolate 91, Sweden 2023, read-out: Minimum inhibitory concentration
  MIC: 0.032 µg/mL (≈ 0.0761 µM)
Neisseria gonorrhoeae, clinical N. gonorrhoeae isolate 92, Sweden 2023, read-out: Minimum inhibitory concentration
  MIC: 0.016 µg/mL (≈ 0.0381 µM)
Neisseria gonorrhoeae, clinical N. gonorrhoeae isolate 93, Sweden 2023, read-out: Minimum inhibitory concentration
  MIC: 0.125 µg/mL (≈ 0.297 µM)
Neisseria gonorrhoeae, clinical N. gonorrhoeae isolate 94, Sweden 2023, read-out: Minimum inhibitory concentration
  MIC: 0.064 µg/mL (≈ 0.152 µM)
Neisseria gonorrhoeae, clinical N. gonorrhoeae isolate 95, Sweden 2023, read-out: Minimum inhibitory concentration
  MIC: 0.064 µg/mL (≈ 0.152 µM)
Neisseria gonorrhoeae, clinical N. gonorrhoeae isolate 96, Sweden 2023, read-out: Minimum inhibitory concentration
  MIC: 0.032 µg/mL (≈ 0.0761 µM)
Neisseria gonorrhoeae, clinical N. gonorrhoeae isolate 97, Sweden 2023, read-out: Minimum inhibitory concentration
  MIC: 0.064 µg/mL (≈ 0.152 µM)
Neisseria gonorrhoeae, clinical N. gonorrhoeae isolate 98, Sweden 2023, read-out: Minimum inhibitory concentration
  MIC: 0.064 µg/mL (≈ 0.152 µM)
Neisseria gonorrhoeae, clinical N. gonorrhoeae isolate 99, Sweden 2023, read-out: Minimum inhibitory concentration
  MIC: 0.008 µg/mL (≈ 0.019 µM)
Neisseria gonorrhoeae, clinical N. gonorrhoeae isolate 100, Sweden 2023, read-out: Minimum inhibitory concentration
  MIC: 0.008 µg/mL (≈ 0.019 µM)
Neisseria gonorrhoeae, read-out: MIC relevant for mutant selection assay, WHO Z
  MIC: 0.125 µg/mL (≈ 0.297 µM)
Neisseria gonorrhoeae, screening panel N. gonorrhoeae isolate A, read-out: Minimum inhibitory concentration
  MIC: 0.06 µg/mL (≈ 0.143 µM)
Neisseria gonorrhoeae, screening panel N. gonorrhoeae isolate B, read-out: Minimum inhibitory concentration
  MIC: 0.03 µg/mL (≈ 0.0713 µM)
Neisseria gonorrhoeae, screening panel N. gonorrhoeae isolate C, read-out: Minimum inhibitory concentration
  MIC: 0.03 µg/mL (≈ 0.0713 µM)
Neisseria gonorrhoeae, screening panel N. gonorrhoeae isolate D, read-out: Minimum inhibitory concentration
  MIC: 0.03 µg/mL (≈ 0.0713 µM)
Neisseria gonorrhoeae, screening panel N. gonorrhoeae isolate E, read-out: Minimum inhibitory concentration
  MIC: 0.03 µg/mL (≈ 0.0713 µM)
Neisseria gonorrhoeae, screening panel N. gonorrhoeae isolate F, read-out: Minimum inhibitory concentration
  MIC: 0.125 µg/mL (≈ 0.297 µM)
Neisseria gonorrhoeae, screening panel N. gonorrhoeae isolate G, read-out: Minimum inhibitory concentration
  MIC: 0.125 µg/mL (≈ 0.297 µM)
Neisseria gonorrhoeae, screening panel N. gonorrhoeae isolate H, read-out: Minimum inhibitory concentration
  MIC: 0.06 µg/mL (≈ 0.143 µM)
Neisseria gonorrhoeae, screening panel N. gonorrhoeae isolate I, read-out: Minimum inhibitory concentration
  MIC: 0.03 µg/mL (≈ 0.0713 µM)
Neisseria gonorrhoeae, screening panel N. gonorrhoeae isolate J, read-out: Minimum inhibitory concentration
  MIC: 0.06 µg/mL (≈ 0.143 µM)
Neisseria gonorrhoeae, screening panel N. gonorrhoeae isolate K, read-out: Minimum inhibitory concentration
  MIC: 0.125 µg/mL (≈ 0.297 µM)
Neisseria gonorrhoeae, screening panel N. gonorrhoeae isolate L, read-out: Minimum inhibitory concentration
  MIC: 0.06 µg/mL (≈ 0.143 µM)
Neisseria gonorrhoeae, screening panel N. gonorrhoeae isolate M, read-out: Minimum inhibitory concentration
  MIC: 0.03 µg/mL (≈ 0.0713 µM)
Neisseria gonorrhoeae, screening panel N. gonorrhoeae isolate N, read-out: Minimum inhibitory concentration
  MIC: 0.03 µg/mL (≈ 0.0713 µM)
Neisseria gonorrhoeae, two clones of strain 6804 with FabI L257F
  MIC: 0.25 µg/mL (≈ 0.595 µM)
[1]
  MIC50: 0.06 µg/mL (≈ 0.143 µM)
  MIC90: 0.06 µg/mL (≈ 0.143 µM)
Screening panel of 14 N. gonorrhoeae isolates
  NgMIC50: 0.03 µg/mL
